Reference: patent publication US20100227307A1, “ERGOTHIONEINE AND/OR ITS DERIVATIVES AS A CELL PRESERVATIVE” (priority 2007, published 2010)

Assays:
[1] = test system: mouse liver; conditions: cited from earlier work
[2] = test system: Stallion named IKE's semen (sperm cells); test: Post-thaw motility of frozen stallion semen in five extenders (Sperm Vision analysis); assay type: cell-based; conditions: ergothioneine added to traditional semen extender compositions
Procedure: The resulting sperm pellet was then split 5 ways and resuspended with the five different extenders tested. DMSO and EQUIPRO® cryoguards were frozen right away. […] Semen was frozen using the ice cube freezer. Semen straws were thawed at 37° C. for 1 minute. Semen was diluted at one to ten in EQUIPRO® concentrate to analyze using sperm vision. All five extenders were measured for motility (total motility and forward progressive motility, FPM) using Sperm Vision® software, a high-resolution, rapid scan digital camera on a plain glass slide. Measurements were taken at 0 min post thaw, 30 min and 60 min post thaw.

[3] = test system: liver tissue of rats; conditions: exogenous L-ergothioneine; cited from earlier work

C[N+](C)(C)[C@@H](Cc1c[nH]c(=S)[nH]1)C(=O)[O-] [ergothioneine, L-ergothioneine]
LPO formation [1]: inhibited LPO formation
decomposition of existing LPO [1]: enhanced the decomposition of existing LPO
sperm cell survival [2]: significant improvement
surviving cell motility [2]: significant improvement
lipid peroxidation by toxic compounds [3]: prevent lipid peroxidation
